Source: the CheMixHub drug solubility set

Assay: xn = mol fraction of the nth substance listed, in the solute-free solvent

CN1CCC(N(Cc2cccs2)c2ccccc2)CC1 + CN(C)C=O + O
solubility (g/100 g solution)
Conditions	278.15 K	283.15 K	288.15 K	293.15 K	298.15 K	303.15 K	308.15 K	313.15 K	318.15 K	323.15 K
x2 = 0.02666	0.234	0.248	0.263	0.283	0.308	0.336	0.367	0.396	0.432	0.473
x2 = 0.05806	0.678	0.715	0.75	0.8	0.862	0.931	1.01	1.08	1.16	1.26
x2 = 0.09556	1.25	1.32	1.38	1.47	1.58	1.7	1.83	1.95	2.11	2.27
x2 = 0.1412	1.74	1.84	1.95	2.07	2.23	2.4	2.59	2.76	2.98	3.21
x2 = 0.1978	2.05	2.19	2.34	2.51	2.71	2.93	3.16	3.38	3.65	3.96
x2 = 0.27	2.31	2.46	2.65	2.87	3.12	3.38	3.66	3.93	4.27	4.64
x2 = 0.3652	2.53	2.75	2.99	3.25	3.54	3.83	4.16	4.52	4.89	5.35
x2 = 0.4965	2.78	3.02	3.28	3.6	3.95	4.31	4.69	5.09	5.53	6.09
x2 = 0.6893	2.78	3.07	3.4	3.73	4.13	4.53	4.98	5.42	5.95	6.54

Cc1ccc2cc(Br)ccc2n1 + CN(C)C=O + O
solubility (g/100 g solution)
Conditions	278.15 K	283.15 K	288.15 K	293.15 K	298.15 K	303.15 K	308.15 K	313.15 K	318.15 K	323.15 K
x2 = 0.02666	0.101	0.115	0.132	0.15	0.17	0.192	0.22	0.251	0.284	0.323
x2 = 0.05806	0.422	0.471	0.529	0.591	0.66	0.737	0.832	0.936	1.05	1.18
x2 = 0.09556	0.867	0.964	1.07	1.19	1.32	1.47	1.66	1.86	2.08	2.34
x2 = 0.1412	1.17	1.3	1.45	1.61	1.79	2	2.27	2.55	2.86	3.23
x2 = 0.1978	1.23	1.39	1.57	1.77	1.98	2.23	2.52	2.87	3.25	3.69
x2 = 0.27	1.27	1.43	1.63	1.85	2.11	2.39	2.74	3.13	3.57	4.1
x2 = 0.3652	1.38	1.58	1.8	2.04	2.31	2.62	2.99	3.45	3.97	4.61
x2 = 0.4965	1.52	1.77	2.05	2.31	2.62	3.01	3.5	4.08	4.7	5.46
x2 = 0.6893	1.67	1.91	2.2	2.61	2.99	3.44	3.98	4.63	5.36	6.25
